Assay results as given in patent US10660910B2, “Use of sedoheptulose for prevention or treatment of inflammation” (C7 SUGAR GMBH, priority 2013, dated 2020).

Assays:
mature murine adipocytes = test: Mature murine adipocytes ceiling culture, cytokine mRNA by RT-PCR; assay type: cell-based, mouse; details: three days in GFS vs GF media
Description: Anterior and posterior subcutaneous adipose tissue and epididymal white adipose tissue was isolated from transgenic CARKL-mice and wild-type littermate controls. Adipose tissue was digested as described above for the human sample. After centrifugation, the layer of floating mature adipocytes was removed and re-centrifuged at 100 rcf for 10 minutes. 150 μL, of packed adipocytes were cultured under a floating coverslip in six-well plates, in DMEM/F12, 15% calf serum (PAA). 24 hours after isolation, the wells were washed twice with PBS and the medium was exchanged to DMEM/F12 with a total carbohydrate load of 3 g/L, containing 1.5 g/L glucose and fructose, or 1 g/L each of glucose, fructose and sedoheptulose, respectively. Three days later, the cells were harvested for RNA isolation using TRIreagent (Sigma).
Briefly, total RNA was extracted and reverse-transcribed using commercial kits (QIAGEN, Applied Biosystems). Quantitative real-time PCRs were performed on an AbiPRISM 7900HT real-time cycler using iTaq SYBR Green Supermix with ROX (BioRad) to measure CARKL, adiponectin, UCP-1, TNFa, IL-6, MCP-1, and beta-actin expression as previously described (Haschemi et al., Cell Metab. 15 (2012), 813-826). Expression of target gene was normalized to beta-actin expression. Relative expression of target gene was calculated by the delta-delta CT method.

[1] = molecular target: T1, recombinant sedoheptulose kinase (CARKL) (Homo sapiens, UniProt Q9UHJ6); test: Sedoheptulose kinase assay (ADP Quest, ADP formation); assay type: biochemical; details: constant amount of recombinant CARKL, constant ATP (150 μM), increased doses of sedoheptulose, FIG. 4A
T1 construct: made in house; host or cells: E. coli
T1 sequence (Q9UHJ6 1-478): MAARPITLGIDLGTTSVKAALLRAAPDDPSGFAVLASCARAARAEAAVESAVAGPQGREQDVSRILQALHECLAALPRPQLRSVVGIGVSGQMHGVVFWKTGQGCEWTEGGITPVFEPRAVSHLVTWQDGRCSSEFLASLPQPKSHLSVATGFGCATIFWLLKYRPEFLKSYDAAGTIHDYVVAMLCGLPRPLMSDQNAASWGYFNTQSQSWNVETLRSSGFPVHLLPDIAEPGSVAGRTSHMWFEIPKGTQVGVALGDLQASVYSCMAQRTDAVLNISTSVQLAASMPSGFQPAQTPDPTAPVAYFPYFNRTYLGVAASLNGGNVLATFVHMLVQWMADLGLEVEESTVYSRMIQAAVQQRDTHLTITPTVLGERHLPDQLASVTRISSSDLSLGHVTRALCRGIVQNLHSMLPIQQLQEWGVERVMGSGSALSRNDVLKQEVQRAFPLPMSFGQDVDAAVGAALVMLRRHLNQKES
Description: FIG. 4: In an in vitro kinase assay, which employs ADP formation as activity readout, the sedoheptulose turnover rate at constant ATP (150 μM) concentration was enhanced either by (A) increasing sedoheptulose concentration or (B) by increasing the amount of the rate-limiting enzyme sedoheptulose kinase (CARKL). (C-E) Hepatocytes from wilt-type (WT) and sedoheptulose kinase CARKL overexpressing mice were pre-cultured for two days in GFS containing media before basal (C) ECAR and (D) OCR was recorded of these cells. (E) Hepatocytes from both genetic lineages (CARKL and WT controls) were cultivated in GF or GFS containing media and then pre-starved (no-carbohydrates) for 1 h to measure glucose-induced ECAR after the addition of glucose to reach a final concentration of 1 g/L in the culture media mean+/−S.D., n=7-11). As metabolic in vivo indicators (F) the respiratory quotient (RQ) and (G) energy expenditure (EE, kcal/day/kg^0.75) per activity by indirect calorimetry were determined and compared CARKL to wild-type (WT) littermates during day (8 am to 4 pm) and night (8 pm to 4 am). Data represent mean values, n=3, +/−SD. […] Blood glucose was measured before the injection (control) and 15, 30, 45 and 60 minutes after injection and graphed as relative value in % of control. […]

WT hepatocytes = test: Glucose-induced ECAR in hepatocytes; assay type: cell-based, mouse; details: WT hepatocytes in GFS vs GF media, 1 hr carbohydrate starvation, then glucose 1 g/L, FIG. 4E
Description: Hepatocytes were isolated from male wild-type and CARKL overexpressing mice after the mice were sacrificed by hepatic in situ collagenase perfusion. After perfusion, the liver was quickly removed, minced, and filtered through a cell strainer (Fisher Scientific, Inc) into a 50 ml sterile tube. Hepatocytes in the resulting filtrate were purified from the nonparenchymal cells by centrifugation steps. The isolated hepatocytes were seeded into plates at a concentration of 0.25×10^6/ml in respective DMEM-media containing 10% FBS and indicated carbohydrate mixes at 3 g/L (glucose and fructose (GF), or glucose, fructose and sedoheptulose (GFS)) at least two days before experiments were performed.
The XF-Analyzer (Seahorse Bio.) was used to measure changes in cellular metabolism induced by different carbohydrates. Extracellular acidification rates (ECAR, mpH/min) and oxygen consumption rates (OCR, pmoles/min) were recorded in primary human adipocytes and primary murine hepatocytes according to the manufacture instructions. Briefly, cells were seeded in seahorse cell plates at a density of 10^4 cells per well for adipocytes and 0.5×10^5 cells per well for hepatocytes. […] Changes induced by the different carbohydrate sources were expressed as relative change in % to illustrate the effect of each carbon source.

sedoheptulose turnover rates as measured by ADP formation [1]: enhanced
Structure (SMILES): O=C(CO)[C@@H](O)[C@H](O)[C@H](O)[C@H](O)CO [sedoheptulose, Sedoheptulose]
TNFa mRNA (mature murine adipocytes; FIG. 3F): less | IL-6 mRNA (mature murine adipocytes; FIG. 3G): less | glucose-induced ECAR (WT hepatocytes): reduced
